Results reported in the supplement of paper PMC3937590.

Columns and labels:
Assay in all cases: -log10 GI50 (growth inhibition 50%) (-log10(M)); higher = more potent growth inhibition
BT483 = tested on: BT483
How it was run: (§1)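 Breast cancer cell lines were exposed to each compound for 72 hours at nine doses in 1:5 serial dilution, in triplicate, with a luminescence read-out against a time-zero plate. A Gompertz curve was fitted to the dose-response data by nonlinear least squares. The value is minus log10 of GI50, the molar concentration giving the set level of growth inhibition. Values equal to the top dose carry a < qualifier.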

T47D = tested on: T47D
How it was run: as §1

SUM229PE = tested on: SUM229PE
How it was run: as §1

HCC1806 = tested on: HCC1806
How it was run: as §1

HCC1937 = tested on: HCC1937
How it was run: as §1

SUM52PE = tested on: SUM52PE
How it was run: as §1

MCF10A = tested on: MCF10A
How it was run: as §1

ZR751 = tested on: ZR751
How it was run: as §1

HCC3153 = tested on: HCC3153
How it was run: as §1

LY2 = tested on: LY2
How it was run: as §1

T47D_KBluc = tested on: T47D_KBluc
How it was run: as §1

SKBR3 = tested on: SKBR3
How it was run: as §1

MDAMB157 = tested on: MDAMB157
How it was run: as §1

SUM1315MO2 = tested on: SUM1315MO2
How it was run: as §1

SUM149PT = tested on: SUM149PT
How it was run: as §1

SUM225CWN = tested on: SUM225CWN
How it was run: as §1

MX1 = tested on: MX1
How it was run: as §1

HCC70 = tested on: HCC70
How it was run: as §1

184B5 = tested on: 184B5
How it was run: as §1

UACC812 = tested on: UACC812
How it was run: as §1

Cc1ccc(C(=O)N(CCCN)[C@@H](c2nc3cc(Cl)ccc3c(=O)n2Cc2ccccc2)C(C)C)cc1 [Ispinesib]
-log10 GI50 (BT483): 6.08
-log10 GI50 (T47D): 7.08
-log10 GI50 (SUM229PE): 7.48
-log10 GI50 (HCC1806): 7.55
-log10 GI50 (HCC1937): 6.56
-log10 GI50 (SUM52PE): 7.54
-log10 GI50 (MCF10A): 7.4
-log10 GI50 (ZR751): 7.05
-log10 GI50 (HCC3153): 7.56
-log10 GI50 (LY2): 6.06
-log10 GI50 (T47D_KBluc): 6.79
-log10 GI50 (SKBR3): 7.49
-log10 GI50 (MDAMB157): 7.5
-log10 GI50 (SUM1315MO2): 7.39
-log10 GI50 (SUM149PT): 7.48
-log10 GI50 (SUM225CWN): 6.99
-log10 GI50 (MX1): 7.92
-log10 GI50 (HCC70): 7.34
-log10 GI50 (184B5): 6.05

CS(=O)(=O)CCNCc1ccc(-c2ccc3ncnc(Nc4ccc(OCc5cccc(F)c5)c(Cl)c4)c3c2)o1 [Lapatinib]
-log10 GI50 (BT483): < 4.78
-log10 GI50 (UACC812): 6.34
-log10 GI50 (T47D): 4.78
-log10 GI50 (SUM229PE): 4.86
-log10 GI50 (HCC1806): < 4.78
-log10 GI50 (HCC1937): < 4.78
-log10 GI50 (SUM52PE): < 4.78
-log10 GI50 (MCF10A): < 4.78
-log10 GI50 (ZR751): < 4.78
-log10 GI50 (HCC3153): < 4.78
-log10 GI50 (T47D_KBluc): < 4.78
-log10 GI50 (SKBR3): 6.39
-log10 GI50 (MDAMB157): < 4.78
-log10 GI50 (SUM1315MO2): 4.82
-log10 GI50 (SUM225CWN): 6.16
-log10 GI50 (MX1): 5.27
-log10 GI50 (HCC70): 5.4
-log10 GI50 (184B5): 5.24

COC(=O)Nc1nc2cc(C(=O)c3ccccc3)ccc2[nH]1 [Mebendazole]
-log10 GI50 (BT483): 5.67
-log10 GI50 (UACC812): 4.9
-log10 GI50 (T47D): 5.66
-log10 GI50 (SUM229PE): 5.68
-log10 GI50 (HCC1806): 6.5
-log10 GI50 (HCC1937): 4.9
-log10 GI50 (SUM52PE): 6.85
-log10 GI50 (MCF10A): 5.5
-log10 GI50 (ZR751): 6.62
-log10 GI50 (HCC3153): 6.69
-log10 GI50 (LY2): 6.32
-log10 GI50 (T47D_KBluc): 4.58
-log10 GI50 (SKBR3): 6.49
-log10 GI50 (MDAMB157): 6.3
-log10 GI50 (SUM1315MO2): < 4.18
-log10 GI50 (SUM149PT): 6.18
-log10 GI50 (MX1): 6.42
-log10 GI50 (HCC70): 6.86
-log10 GI50 (184B5): < 4.18

CN(Cc1cnc2nc(N)nc(N)c2n1)c1ccc(C(=O)N[C@@H](CCC(=O)O)C(=O)O)cc1 [Methotrexate]
-log10 GI50 (BT483): 3.63
-log10 GI50 (T47D): < 3.48
-log10 GI50 (SUM229PE): < 3.48
-log10 GI50 (HCC1806): 5.76
-log10 GI50 (HCC1937): < 3.48
-log10 GI50 (SUM52PE): < 3.48
-log10 GI50 (MCF10A): 7.39
-log10 GI50 (ZR751): 7.31
-log10 GI50 (HCC3153): < 3.48
-log10 GI50 (LY2): 7.47
-log10 GI50 (T47D_KBluc): 6.57
-log10 GI50 (SKBR3): 6.28
-log10 GI50 (MDAMB157): 7.12
-log10 GI50 (SUM1315MO2): < 3.48
-log10 GI50 (SUM149PT): < 3.48
-log10 GI50 (SUM225CWN): < 3.48
-log10 GI50 (MX1): 7.82
-log10 GI50 (HCC70): < 3.48
-log10 GI50 (184B5): 7.37

NS(=O)(=O)c1ccc(Nc2nc(OCC3CCCCC3)c3[nH]cnc3n2)cc1 [NU6102]
-log10 GI50 (UACC812): 4.42
-log10 GI50 (T47D): 4.82
-log10 GI50 (SUM229PE): 5.1
-log10 GI50 (HCC1806): 4.81
-log10 GI50 (HCC1937): 4.27
-log10 GI50 (SUM52PE): 5.27
-log10 GI50 (MCF10A): 5.32
-log10 GI50 (ZR751): 4.82
-log10 GI50 (HCC3153): 4.8
-log10 GI50 (LY2): 4.56
-log10 GI50 (T47D_KBluc): 4.43
-log10 GI50 (SKBR3): 4.51
-log10 GI50 (MDAMB157): 4.26
-log10 GI50 (SUM1315MO2): 5.42
-log10 GI50 (SUM149PT): 5.14
-log10 GI50 (SUM225CWN): 4.3
-log10 GI50 (MX1): 5.47
-log10 GI50 (HCC70): 4.71
-log10 GI50 (184B5): 5.39
